Measured values: article PMC3671673, “In Vitro Morphological Assessment of Apoptosis Induced by Antiproliferative Constituents from the Rhizomes of Curcuma zedoaria” (Evidence-based Complementary and Alternative Medicine : eCAM, 2013)
≈ marks a conversion by molar mass, not a printed value.

Key:
[1] = tested on: colon carcinoma cell line (HCT-116); assay: Neutral red cytotoxicity assay, HCT-116; assay type: cell-based; details: Homo sapiens, isolated compounds, 72 h, mean ± SD of three replicates, read-out: IC50 (μg/mL) HCT-116
Protocol: (§1) The human cancer cells KB, Ca Ski, MCF-7, HCT-116, A549, and noncancer human cell lines (MRC-5) were purchased from the American Tissue Culture Collection (ATCC, USA). The supplemented RPMI 1640 media and eagle minimum essential medium (EMEM) were purchased from Sigma-Aldrich, USA. The supplements or antibiotics such as foetal bovine serum (FBS), penicillin/streptomycin (P/S) (100 μg/mL), amphotericin B (50 μg/mL), and accutase were purchased from PAA Laboratories, Austria. Sodium pyruvate (11 mg/mL) purchased from Sigma-Aldrich, USA. The cells were cultured in a SHEL LAB water-jacketed CO2 incubator with […] tissue culture flasks (Nunc, Denmark), which was observed routinely under inverted microscope (Leica DMI3000 B, Germany) for any contamination and seeded into 96-well flat bottom microtiter plate (Nunc, Denmark). The extract or pure compounds was dissolved in dimethyl sulfoxide (DMSO, Molecular Biology Grade, >99.9%) from Sigma-Aldrich, USA. Microtiter plate incubator shaker (LT Biomax 500) was used and absorbance was measured at 540 nm using an ELISA microplate reader (EMax microplate reader of Molecular Devices, USA). MCF-7 and Ca Ski were cultured in RPMI 1640 media supplemented with 10% v/v FBS, P/S, and amphotericin B and MRC-5 in EMEM media with 10% v/v FBS, P/S, amphotericin B, and sodium pyruvate. The cells were cultured in tissue culture flask in 5% CO2 incubator kept at 37°C in a humidified atmosphere and observed routinely under inverted microscope from any contaminations. Each fresh medium was replaced every 2 or 3 days until cell confluence was achieved and the cells were detached by using accutase.
(§2) The in vitro cytotoxicity activity was performed using the neutral red cytotoxicity assay based on the initial protocol as described earlier with some modifications. Briefly, cells were detached from the tissue culture flask with 1.0 mL solution of accutase and PBS solution. The cell pellet was obtained by centrifugation at 1,000 rpm for 5 minutes. The density of the viable cells was counted by 0.4% of trypan blue exclusion in a haemocytometer. Cells were then plated in 96-well microtiter plate (Nunc), at a concentration of 1 × 10^4 cells/well and incubated in a CO2 incubator at 37°C to allow the cells to adhere. After 24 h, the cells were treated with six different concentrations, that is, 1, 10, 25, 50, 75, and 100 μg/mL of each tested agent in three replicates. The plates were incubated for 72 h at 37°C in a 5% CO2 incubator. The untreated cells were regarded as a negative control, whilst cells incubated only with DMSO (0.5%, v/v) were used as a vehicle control. No effect due to the DMSO was observed. Doxorubicin was used as the positive control. After 72 h, the old medium was substituted with fresh medium containing 50 μg/mL neutral red. The 96-well plates were placed into incubator for 3 h. This is to allow the uptake of the vital dye into the lysosomes of viable and undamaged cells. Then, the media was discarded and cells were washed with 200 μL of neutral red washing solution. The dye was eluted from the cells by adding neutral red resorb solution (200 μL). The plate was further incubated for 30 min with rapid agitation on a microtiter plate shaker. The optical density (OD) of the eluted dye was read at 540 nm using a microplate reader. The experiments were conducted in triplicates. […] Cytotoxicity of each test agent is expressed as IC50 value. […]

[2] = tested on: MCF-7 cells; assay: Morphological changes by phase contrast inverted microscope, MCF-7; assay type: cell-based, human; details: MCF-7, 48 h, 12.5-50 μg/mL, phase contrast 200x
Protocol: (§3) Observation of morphological changes of apoptotic cells was performed according to the method with slight modifications. Briefly, 5 × 10^5 cells were incubated for 48 hours with or without selected compounds at concentrations of 12.5, 25, 40, and 50 μg/mL in a 60 mm diameter tissue culture dishes. The medium was discarded and cells were washed once with PBS. The morphological changes of the apoptotic cells were observed using phase contrast inverted microscope (Leica DMI 3000B, Germany) at 200x magnifications.

[3] = tested on: HCT-116 cells; assay: Morphological changes by phase contrast inverted microscope, HCT-116; assay type: cell-based, human; details: HCT-116, 48 h, 12.5-50 μg/mL, phase contrast 200x
Protocol: as §3

[4] = tested on: active caspase-3 in HCT-116 cells; assay: Flow cytometric active caspase-3 assay, HCT-116; assay type: cell-based, human
Protocol: Caspases are key mediators of cell death. Caspase-3 activity assay was performed using FITC Active Caspase-3 Apoptosis Kit (BD Pharmingen). These probes bind covalently and irreversibly to the active site of the active caspase heterodimer emitting the green fluorescent signal detected by the FL-1 channel. Briefly, the cancer cells were treated with curzerenone (25, 40, and 50 μg/mL) and alismol (12.5, 25, and 40 μg/mL) for 48 h. The assay was performed based on the manufacturer's protocol. Cells were analyzed using BD Accuri C6 flow cytometry and BD CFlow software.

[5] = tested on: noncancer human lung fibroblast cell line (MRC-5); assay: Neutral red cytotoxicity assay, MRC-5; assay type: cell-based; details: MRC5, isolated compounds, 72 h, mean ± SD of three replicates, read-out: IC50 (μg/mL) MRC-5
Protocol: as §1, §2

[6] = tested on: cervical carcinoma cell line (Ca Ski); assay: cells; assay type: cell-based; details: Homo sapiens, isolated compounds, 72 h, neutral red, mean ± SD of three replicates, read-out: IC50 (μg/mL) Ca Ski
Protocol: as §1
(§4) The in vitro cytotoxicity activity was performed using the neutral red cytotoxicity assay based on the initial protocol as described earlier with some modifications. Briefly, cells were detached from the tissue culture flask with 1.0 mL solution of accutase and PBS solution. The cell pellet was obtained by centrifugation at 1,000 rpm for 5 minutes. The density of the viable cells was counted by 0.4% of trypan blue exclusion in a haemocytometer. Cells were then plated in 96-well microtiter plate (Nunc), at a concentration of 1 × 10^4 cells/well and incubated in a CO2 incubator at 37°C to allow the cells to adhere. After 24 h, the cells were treated with six different concentrations, that is, 1, 10, 25, 50, 75, and 100 μg/mL of each tested agent in three replicates. The plates were incubated for 72 h at 37°C in a 5% CO2 incubator. The untreated cells were regarded as a negative control, whilst cells incubated only with DMSO (0.5%, v/v) were used as a vehicle control. No effect due to the DMSO was observed. Doxorubicin was used as the positive control. After 72 h, the old medium was substituted with fresh medium containing 50 μg/mL neutral red. The 96-well plates were placed into incubator for 3 h. This is to allow the uptake of the vital dye into the lysosomes of viable and undamaged cells. Then, the media was discarded and cells were washed with 200 μL of neutral red washing solution. The dye was eluted from the cells by adding neutral red resorb solution (200 μL). The plate was further incubated for 30 min with rapid agitation on a microtiter plate shaker. The optical density (OD) of the eluted dye was read at 540 nm using a microplate reader. The experiments were conducted in triplicates. The percentage of inhibition of each of the test samples was calculated according to the following formula using the OD values obtained: percentage of inhibition (%) = (OD control − OD sample)/OD control × 100%. The average of three replicates was then obtained. Cytotoxicity of each test agent is expressed as IC50 value. The IC50 value is the concentration of test agents that cause 50% inhibition or cell death, averaged from the three experiments. The IC50 for each extract was extrapolated from the graphs of the percentage inhibition versus concentration of test agents.

[7] = tested on: hormone-dependent breast cancer cell line (MCF-7); assay: cells; assay type: cell-based; details: Homo sapiens, MCF7; isolated compounds, 72 h, neutral red, mean ± SD of three replicates; read-out: IC50 (μg/mL) MCF-7
Protocol: as §1, §4

| SMILES | IC50 [1] [µg/mL] | morphological changes (in words) [2] | morphological changes (in words) [3] | highest increment of caspase-3 activity ([4]; HCT-116, 40 μg/mL, 48 h) [folds] | IC50 [5] [µg/mL] | IC50 [6] [µg/mL] | IC50 [7] [µg/mL] | highest increment in caspase-3 activity compared to untreated cells ([4]; HCT-116, 48 h, concentration not given) [folds] |
| --- | --- | --- | --- | --- | --- | --- | --- | --- |
| C=C1CCC(C(C)C)=CC2C1CC[C@@]2(C)O (some centres unmarked) [Alismol, alismol] | 9 ± 0.9 (≈ 40.8 µM) | typical apoptotic features | typical apoptotic features | 45 | > 100 | 8.7 ± 1.1 (≈ 39.5 µM) | 10 ± 0.7 (≈ 45.4 µM) |  |
| C=CC1(C)Cc2occ(C)c2C(=O)C1C(=C)C (centres unmarked) [Curzerenone, curzerenone] | 53 ± 1.5 (≈ 230 µM) | typical apoptotic features | typical apoptotic features |  | 20 ± 1.2 (≈ 86.8 µM) | 8.9 ± 0.7 (≈ 38.6 µM) | 40 ± 0.5 (≈ 174 µM) | 100 |
